Measurements as given in PubChem BioAssay AID1963443 (Molecular Pharmacology Branch, DTP, NCI, 2024).

System: MDA-MB-231 complex spheroids, growth inhibition
Test: Anticancer human tumor MDA-MB-231 cell line growth inhibition [Asc];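 further: spheroids exposed to compounds for 7 days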
Settings: for IC50: curve of first compound; for viability, T/C: stronger effect = lower value; active means viability on the fitted dose curve at most 10% of control; inactive means the rest
Outline: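 Complex spheroids combining tumor cells with HUVEC endothelial cells and human MSCs, at 37 degrees C, 5% CO2; agents tested alone or combined, half-log dilutions from at or near clinical Cmax, or 10 microM if Cmax unknown.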

NC(=O)C(=Cn1cnc(-c2cc(C(F)(F)F)cc(C(F)(F)F)c2)n1)c1cncnc1 + Cc1c(S(C)(=O)=O)c(-c2cc(F)cc(N3CCN(c4ccc(NS(=O)(=O)c5ccc(NC(CCN6CCC(C(=O)OCCCP(=O)(O)O)CC6)CSc6ccccc6)c(S(=O)(=O)C(F)(F)F)c5)cc4)CC3)c2)c(-c2ccc(Cl)cc2)n1C(C)C
63.4 nM: IC50 (second compound 0.1 µM)
43.3 nM: IC50 (second compound 10 µM)
50.8 nM: IC50 (second compound 1 µM)
inactive: viability, T/C (second compound 0.1 µM, first compound 0.000949 µM) 100% | viability, T/C (second compound 0.1 µM, first compound 0.003 µM) 101% | viability, T/C (second compound 0.1 µM, first compound 0.00949 µM) 86.3% | viability, T/C (second compound 0.1 µM, first compound 0.03 µM) 62.6% | viability, T/C (second compound 0.1 µM, first compound 0.0949 µM) 43.7% | viability, T/C (second compound 0.316 µM, first compound 0.000949 µM) 111% | viability, T/C (second compound 0.316 µM, first compound 0.003 µM) 103% | viability, T/C (second compound 0.316 µM, first compound 0.00949 µM) 89.8% | viability, T/C (second compound 0.316 µM, first compound 0.03 µM) 64.9% | viability, T/C (second compound 0.316 µM, first compound 0.0949 µM) 37.4% | viability, T/C (second compound 1 µM, first compound 0.000949 µM) 104% | viability, T/C (second compound 1 µM, first compound 0.003 µM) 103% | viability, T/C (second compound 1 µM, first compound 0.00949 µM) 88.5% | viability, T/C (second compound 1 µM, first compound 0.03 µM) 67.4% | viability, T/C (second compound 1 µM, first compound 0.0949 µM) 30.2% | viability, T/C (second compound 3.16 µM, first compound 0.000949 µM) 98.1% | viability, T/C (second compound 3.16 µM, first compound 0.003 µM) 93.7% | viability, T/C (second compound 3.16 µM, first compound 0.00949 µM) 84.4% | viability, T/C (second compound 3.16 µM, first compound 0.03 µM) 60% | viability, T/C (second compound 3.16 µM, first compound 0.0949 µM) 19.2% | viability, T/C (second compound 10 µM, first compound 0.000949 µM) 105% | viability, T/C (second compound 10 µM, first compound 0.003 µM) 103% | viability, T/C (second compound 10 µM, first compound 0.00949 µM) 97.3% | viability, T/C (second compound 10 µM, first compound 0.03 µM) 68% | viability, T/C (second compound 10 µM, first compound 0.0949 µM) 12.1%
56.5 nM: IC50 (second compound 0.316 µM)
active: viability, T/C (second compound 0.1 µM, first compound 0.3 µM) 6.26% | viability, T/C (second compound 0.316 µM, first compound 0.3 µM) 4.18% | viability, T/C (second compound 1 µM, first compound 0.3 µM) 2.94% | viability, T/C (second compound 3.16 µM, first compound 0.3 µM) 2.31% | viability, T/C (second compound 10 µM, first compound 0.3 µM) 0.73%
38.8 nM: IC50 (second compound 3.16 µM)

COc1c(OCCCN2CCOCC2)ccc2c3n(c(=NC(=O)c4cnc(N)nc4)nc12)CCN3 + Cc1c(S(C)(=O)=O)c(-c2cc(F)cc(N3CCN(c4ccc(NS(=O)(=O)c5ccc(NC(CCN6CCC(C(=O)OCCCP(=O)(O)O)CC6)CSc6ccccc6)c(S(=O)(=O)C(F)(F)F)c5)cc4)CC3)c2)c(-c2ccc(Cl)cc2)n1C(C)C
inactive: viability, T/C (second compound 0.1 µM, first compound 0.00316 µM) 85.8% | viability, T/C (second compound 0.1 µM, first compound 0.01 µM) 85.2% | viability, T/C (second compound 0.1 µM, first compound 0.0316 µM) 67.7% | viability, T/C (second compound 0.1 µM, first compound 0.1 µM) 49.3% | viability, T/C (second compound 0.1 µM, first compound 0.316 µM) 31.3% | viability, T/C (second compound 0.1 µM, first compound 1 µM) 20.1% | viability, T/C (second compound 0.316 µM, first compound 0.00316 µM) 94.6% | viability, T/C (second compound 0.316 µM, first compound 0.01 µM) 81.1% | viability, T/C (second compound 0.316 µM, first compound 0.0316 µM) 63% | viability, T/C (second compound 0.316 µM, first compound 0.1 µM) 47% | viability, T/C (second compound 0.316 µM, first compound 0.316 µM) 24.3% | viability, T/C (second compound 0.316 µM, first compound 1 µM) 12.1% | viability, T/C (second compound 1 µM, first compound 0.00316 µM) 94.8% | viability, T/C (second compound 1 µM, first compound 0.01 µM) 85.1% | viability, T/C (second compound 1 µM, first compound 0.0316 µM) 66% | viability, T/C (second compound 1 µM, first compound 0.1 µM) 40.8% | viability, T/C (second compound 1 µM, first compound 0.316 µM) 17.6% | viability, T/C (second compound 3.16 µM, first compound 0.00316 µM) 88.1% | viability, T/C (second compound 3.16 µM, first compound 0.01 µM) 84.2% | viability, T/C (second compound 3.16 µM, first compound 0.0316 µM) 54.6% | viability, T/C (second compound 3.16 µM, first compound 0.1 µM) 32.8% | viability, T/C (second compound 3.16 µM, first compound 0.316 µM) 12.1% | viability, T/C (second compound 10 µM, first compound 0.00316 µM) 90.3% | viability, T/C (second compound 10 µM, first compound 0.01 µM) 85.1% | viability, T/C (second compound 10 µM, first compound 0.0316 µM) 59.8% | viability, T/C (second compound 10 µM, first compound 0.1 µM) 32.5% | viability, T/C (second compound 10 µM, first compound 0.316 µM) 10.2%
64.2 nM: IC50 (second compound 1 µM)
active: viability, T/C (second compound 1 µM, first compound 1 µM) 8.74% | viability, T/C (second compound 3.16 µM, first compound 1 µM) 5.37% | viability, T/C (second compound 10 µM, first compound 1 µM) 3.64%
44.5 nM: IC50 (second compound 3.16 µM)
49 nM: IC50 (second compound 10 µM)
95.4 nM: IC50 (second compound 0.1 µM)
72.9 nM: IC50 (second compound 0.316 µM)
